The record followed here is ChEMBL document CHEMBL3813611, “Antiprotozoal activity of bicycles featuring a dimethylamino group at their bridgehead” (Bioorg Med Chem, 2016).

The subject of data set [1] is Trypanosoma brucei rhodesiense. Put plainly: Antitrypanosomal activity against Trypanosoma brucei rhodesiense STIB 900 bloodstream forms after 72 hrs by Alamar blue assay. Type of data set: functional, organism-based. The conditions noted are these: STIB 900, 72 h. A general note: The colour change of resazurin is a common sign of viable cells or microbes.
The test system of the next data set is Plasmodium falciparum. The experiment in a line: Antiplasmodial activity against chloroquine/pyrimethamine resistant Plasmodium falciparum K1 infected in human red blood cells after 48 hrs by [3H]hypoxanthine incorporation assay. Type of data set: functional, organism-based.
A short description of data set [2]: Selectivity index, ratio of IC50 for rat L6 cells to IC50 for Trypanosoma brucei rhodesiense STIB 900 bloodstream forms. It is filed as toxicity, cell-based. The conditions noted are these: read-out: Ratio IC50.
The next data set concerns L6. Put plainly: Cytotoxicity against rat L6 cells assessed as reduction in cell viability after 72 hrs by Alamar blue assay. Type of data set: cell-based. The conditions noted are these: L6, 72 h.
Data set [3] in a line: Selectivity index, ratio of IC50 for rat L6 cells to IC50 for chloroquine/pyrimethamine resistant Plasmodium falciparum K1 infected in human red blood cells. Type of data set: toxicity, cell-based. The conditions noted are these: read-out: Ratio IC50.

In the case of `CN(C)C12CC(NC(=O)CCN3CCCCC3)C(C(c3ccccc3)C1)C(c1ccccc1)C2` (racemic), the IC50 in data set [1] came to 1.49 µM; in the data set on Plasmodium falciparum, 0.69 µM; in the data set on L6, 7.85 µM. Besides, the selectivity ratio came out at 5.27 in data set [2] and 11.4 in data set [3].
Taken in the same sequence, the figures for `CCN(CC)CCN1CCC2(N(C)C)CC(c3ccccc3)C1C(c1ccccc1)C2` (racemic) were 1.79 µM, 0.71 µM, 101 µM, 56.5 and 142.
For the molecule `CCN(CC)CC(=O)N1CCC2(N(C)C)CC(c3ccccc3)C1C(c1ccccc1)C2` (stereo not drawn), the IC50 in data set [1] was determined as 5.21 µM; in the data set with Plasmodium falciparum it was 1.3 µM; with L6, 89.6 µM. The selectivity ratio in data set [2] came to 17.2; in data set [3], 68.9.
Taken in the same sequence, the figures for `CCN(CC)CCCN1CC2C(c3ccccc3)CC(N(C)C)(CC2c2ccccc2)C1` (racemic) were 0.46 µM, 0.065 µM, 3.27 µM, 7.11 and 50.3.
The matching figures for `CN(C)C12CCN(CCN3CCCCC3)C(C(c3ccccc3)C1)C(c1ccccc1)C2` (racemic): 2.62 µM, 0.87 µM, 135 µM, 51.6 and 155.
The matching figures for `CN(C)C12CC(c3ccccc3)C(CN(C(=O)CCN3CCCC3)C1)C(c1ccccc1)C2` (racemic): 1.57 µM, 0.22 µM, 11.7 µM, 7.46 and 53.3.
As for `CN(C)C12CCN(C(=O)CN3CCCCC3)C(C(c3ccccc3)C1)C(c1ccccc1)C2` (stereo not drawn), the IC50 in data set [1] came to 9.47 µM; with Plasmodium falciparum, 1.72 µM; in the data set with L6 it was 141 µM. Also, the results for the selectivity ratio in data set [2] and in data set [3] were 14.9 and 82.2, respectively.
The matching figures for `CN1CCN(CCCN2CC3C(c4ccccc4)CC(N(C)C)(CC3c3ccccc3)C2)CC1` (racemic): 0.11 µM, 0.15 µM, 0.2 µM, 1.82 and 1.33.
The matching figures for `CN(C)C12CC(NC(=O)CN3CCCCC3)C(C(c3ccccc3)C1)C(c1ccccc1)C2` (racemic): 0.48 µM, 0.11 µM, 7.16 µM, 14.9 and 65.1.
`CCN(CC)CCC(=O)N1CC2C(c3ccccc3)CC(N(C)C)(CC2c2ccccc2)C1` (racemic): the figures for the IC50 (in data set [1]; in the data set with Plasmodium falciparum; in the data set on L6) were 1.46 µM, 0.39 µM and 15.4 µM, respectively. The selectivity ratio in data set [2] came out at 20.6; in data set [3], 39.6.
The matching figures for `CN1CCN(CCN2CC3C(c4ccccc4)CC(N(C)C)(CC3c3ccccc3)C2)CC1` (racemic): 0.27 µM, 0.25 µM, 5.26 µM, 19.5 and 21.
Turning to `CN1CCN(CCC(=O)N2CC3C(c4ccccc4)CC(N(C)C)(CC3c3ccccc3)C2)CC1` (racemic), the values for the IC50 (in data set [1]; with Plasmodium falciparum; in the data set with L6) were 1.52 µM, 0.18 µM and 13 µM, respectively. In addition, the selectivity ratio in data set [2] was 8.54; in data set [3] it was 72.1.
The matching figures for `CN(C)C12CC(c3ccccc3)C(CN(CCCN3CCCCC3)C1)C(c1ccccc1)C2` (racemic): 0.15 µM, 0.19 µM, 1.75 µM, 11.7 and 9.21.
Taken in the same sequence, the figures for `CN(C)C12CC(c3ccccc3)C(CN(C(=O)CN3CCCCC3)C1)C(c1ccccc1)C2` (racemic) were 2.4 µM, 0.4 µM, 12.1 µM, 5.05 and 30.3.
Taken in the same sequence, the figures for `CN(C)C12CC(c3ccccc3)C(CN(CCN3CCCC3)C1)C(c1ccccc1)C2` (racemic) were 0.54 µM, 0.29 µM, 5.58 µM, 10.3 and 19.2.
As for `CN(C)C12CC(c3ccccc3)C(CN(C(=O)CN3CCCC3)C1)C(c1ccccc1)C2` (racemic), the values for the IC50 (in data set [1]; in the data set on Plasmodium falciparum; in the data set with L6) were 2.16 µM, 0.24 µM and 12.6 µM, respectively. The values for the selectivity ratio in data set [2] and in data set [3] were 5.82 and 52.4, respectively.
The matching figures for `CN(C)C12CC(c3ccccc3)C(CN(CCN3CCCCC3)C1)C(c1ccccc1)C2` (racemic): 0.12 µM, 0.09 µM, 2.92 µM, 24.3 and 32.4.
As for `Nc1nc(N)nc(Nc2ccc([As]3SCC(CO)S3)cc2)n1` (stereo not drawn) [MELARSOPROL], the selectivity ratio in data set [2] worked out at 2000.
`CN1CCN(CC(=O)N2CC3C(c4ccccc4)CC(N(C)C)(CC3c3ccccc3)C2)CC1` (racemic): the figures for the IC50 (in data set [1]; in the data set with Plasmodium falciparum; in the data set with L6) were 1.47 µM, 0.43 µM and 9.25 µM, respectively. The selectivity ratio in data set [2] amounted to 6.29; in data set [3], 21.5.
Consider `CN(C)C12CC(c3ccccc3)C(CN(C(=O)CCN3CCCCC3)C1)C(c1ccccc1)C2` (racemic), for which the IC50 in data set [1] worked out at 1.23 µM; with Plasmodium falciparum, 0.052 µM; in the data set on L6, 12.4 µM. Besides, the selectivity ratio in data set [2] turned out to be 10.1; in data set [3] it was 238.
The matching figures for `CN(C)C12CC(c3ccccc3)C(CN(CCCN3CCCC3)C1)C(c1ccccc1)C2` (racemic): 0.16 µM, 0.15 µM, 1.55 µM, 9.69 and 10.3.
The molecule `C[C@@H]1CC[C@H]2[C@@H](C)C(=O)O[C@@H]3O[C@@]4(C)CC[C@@H]1[C@]32OO4` [ARTEMISININ] had an IC50 with Plasmodium falciparum of 0.0064 µM. The selectivity ratio in data set [3] is 70400.

One may read the IC50 as the midpoint of a concentration-inhibition curve.
